Measured values: a melting point compilation (Tetko et al.; mined from patent text by program, amines drawn as free bases though some values may be those of a salt)

First: CCOC(=O)c1c(O)c2cc(F)ccc2c(=O)n1CC(C)(C)C
Second: CCCc1c(C(=O)C(C)C)c2ccc(C(N)=O)cc2n1Cc1ccccc1Br
The melting point of the first is lower: 115 to 116 °C for the first, 173 to 174 °C for the second.

First: Nc1ccc2nc(-c3ccccc3)sc2c1
Second: c1ccc(-c2cc3ccccc3s2)nc1
The melting point of the first is higher: 200 to 201 °C for the first, 124 to 126 °C for the second.

First: COc1c(N2CCC(C(O)CO)CC2)c(F)cc2c(=O)c(C(=O)O)cn(C3CC3)c12 (stereo unspecified)
Second: CC1Cc2c(N3CCN(CC(F)(F)F)CC3)c(F)cc3c(=O)c(C(=O)O)cn1c23 (stereo unspecified)
The melting point of the first is lower: 200 to 204 °C for the first, 287 to 289 °C for the second.

First: COC(=O)c1cc2ccc(OC)cc2o1
Second: COC(=O)c1c(OC)ccc([N+](=O)[O-])c1OC
The melting point of the first is higher: 97 to 98 °C for the first, 77 to 78 °C for the second.

Compared with CCOc1cc2c(cc1OCC)CCCC(C(=O)N1CCN(C(=O)c3cc(OC)c(OC)c(OC)c3)CC1)=C2, COc1cc(COc2ccc3nc(NC(=O)Oc4ccccc4)cn3n2)cc(OC)c1OC is higher in melting point: 183 to 185 °C for the first, 210 to 213 °C for the second.

First: COc1ccc(Cc2n[nH]c3c2c(=O)n(-c2ccccc2)c2ncccc32)cc1OC
Second: COC(=O)C(C)(C)OCc1nn(Cc2ccccc2)c2ccccc12
The melting point of the first is higher: 230 to 232 °C for the first, 66 to 67 °C for the second.

First: CCc1nc2c(C)cc(C)nc2n1Cc1ccc(C(c2ccccc2)C(C(=O)O)C(=O)O)cc1 (stereo unspecified)
Second: CC(C)n1nc(-c2sc(NC(=O)c3ccc(CN(C)CCN(C)C)cc3)nc2-c2ccccc2)ccc1=O
The melting point of the first is higher: 137 to 142 °C for the first, 131 to 133 °C for the second.

First: O=C1C=C(Oc2ccc(Oc3ccccc3)cc2)C(O)O1 (stereo unspecified)
Second: CSc1ccc(Oc2ccc([N+](=O)[O-])cc2)cc1
The melting point of the first is higher: 107 to 108 °C for the first, 59 to 61 °C for the second.

First: O=C(O)c1cccc(NCc2cccs2)c1C(=O)O
Second: O=C(c1cccs1)c1cnn2c(-c3cccc(NC(=O)C4CCCCC4)c3)ccnc12
The melting point of the first is lower: 223 to 225 °C for the first, 239 to 240 °C for the second.

First: O=C(N[C@H]1CCOC1=O)[C@H](Cc1ccccc1)NS(=O)(=O)c1cccc2ccccc12
Second: CCOC(=NC(=O)c1cccc2ccccc12)c1ccc(Br)cc1
The melting point of the first is lower: 93 to 94 °C for the first, 104 to 105 °C for the second.

Compared with CCOC(=O)c1c(C(=O)Cc2c(CCNCCc3ccccc3)cc3c(c2OC)OCO3)ccc(OC)c1OC, CC(C)(C)OC(=O)NNC(=O)c1ccnc2[nH]c(CCc3ccccc3)cc12 is higher in melting point: 102 to 104 °C for the first, 187 to 188 °C for the second.

Compared with COC(=O)C1=C(C)NC(C)=C(C(=O)OCCN2CCN(C(c3ccccc3)c3ccccc3)CC2)C1c1ccco1 (stereo unspecified), O=c1[nH]c2ccccc2cc1CN1CCN(c2ccc(Cl)cc2)CC1 is higher in melting point: 71 to 77 °C for the first, 256 to 259 °C for the second.

First: CCOC(=O)N1CCC(Nc2cc(OC)ccc2N)CC1
Second: COc1ccc(-c2c3c(c(C)c4ccc(OC)cc24)C(=O)NC3)cc1
The melting point of the first is lower: 97 to 99 °C for the first, 235 to 237 °C for the second.

O=C(CSCc1cc(Br)cc2[nH]c(=O)c(=O)[nH]c12)Nc1ccccc1 and Cc1cc(C)c2cc(-c3ccccc3)c(=O)[nH]c2n1 cannot be ordered by melting point: > 250 °C for the first, 258 to 260 °C for the second.

First: CS(=O)(=O)c1ccc(-n2nc(CNC(=O)Nc3ccc(C(F)(F)F)cc3)cc2-c2ccccc2)cc1
Second: CS(=O)(=O)c1ccc(-c2nn3c(-c4ccccc4)coc3c2-c2ccc(F)cc2)cc1
The melting point of the first is lower: 129 to 132 °C for the first, 151 to 154 °C for the second.

First: Cc1ccc2c(c1)Oc1ccc([N+](=O)[O-])cc1C(=O)N2
Second: COC(=O)c1ccc2c(ccn2Cc2cccc([N+](=O)[O-])c2)c1
The melting point of the first is higher: 264 to 266 °C for the first, 129 to 130 °C for the second.

First: OCc1ccc(OCCCCCSc2ccnc3cc(C(F)(F)F)ccc23)cc1
Second: CCCCc1oc2ccccc2c1-c1ncc(-c2ccc3cc(OCC#N)ccc3c2)o1
The melting point of the first is lower: 98.3 °C for the first, 127 °C for the second.

First: CCCc1c(O)ccc2oc(Cc3ccc(OC)cc3)c(C)c12
Second: CCCCc1ccc(NC(=O)Nc2ccc(S(N)(=O)=O)cc2)cc1
The melting point of the first is lower: 91 to 93 °C for the first, 243 to 245 °C for the second.

Compared with O=C(NOCC(O)CN1CCCCC1)Nc1ccccc1 (stereo unspecified), CN1C(=O)C[C@@H](c2ccccc2)[C@H]1CO is lower in melting point: 101 to 103 °C for the first, 93 to 95 °C for the second.

First: O=C(c1ccccc1)N1CCc2cc(Cl)ccc21
Second: O=C(C=Cc1ccccc1)c1c(Cl)cccc1Cl
The melting point of the first is higher: 135 to 136 °C for the first, 98.2 to 99.2 °C for the second.

First: CC1CC(=O)N(c2cc(C(C)(C)C)c(O)c(C(C)(C)C)c2)C1 (stereo unspecified)
Second: Cc1cc(C)c(COc2cccc3c2C(=O)c2c(Cl)ccc(Cl)c2C3=O)c(C)c1
The melting point of the first is lower: 157 to 159 °C for the first, 216 to 218 °C for the second.

First: O=C(O)CCC(O)c1ccc(-c2ccc(Br)cc2)cc1 (stereo unspecified)
Second: CCCOC(=O)Oc1ccc(-c2ccc(C#N)cc2)cc1
The melting point of the first is higher: 127 °C for the first, 70.2 to 70.9 °C for the second.

Compared with CCCCc1nc2c(N)nc3cccnc3c2n1CCCCN1CC(C(N)=O)=CC=C1N1CCOCC1, CCC1c2c(C#N)ncn2-c2cnc(Nc3ccc(C(=O)NC4CCN(C5CCN(CC(C)C)CC5)CC4)cc3OC)nc2N1C(C)C (stereo unspecified) is higher in melting point: 95 to 100 °C for the first, 165 to 170 °C for the second.

First: NNC(=O)C=Cc1cc2ccccc2o1
Second: CCN(CC)C(=O)COc1cc(-c2ccccc2)nc2ccccc12
The melting point of the first is higher: 173 to 174 °C for the first, 97 °C for the second.

First: CCCCCCCCCCCCCCNC(=S)NC(=O)c1ccc(C#N)cc1
Second: Cc1cc(CBr)cc(Oc2nc(Cl)nc(Cl)c2C(C)C)c1
The melting point of the first is lower: 78 to 80 °C for the first, 98 to 101 °C for the second.

Compound COCC1OC(OC(C)=O)C(OC(C)=O)C(OC(C)=O)C1OC(C)=O (stereo unspecified) has a melting point of 102 to 103 °C.
